Data set [1] has as its system Male Wistar rats. Nature of the data set: Sucrose-Loaded Model (SLM), blood glucose AUC. The data set is classed as in vivo, rat. The settings on record: oral gavage, sucrose load 10 gm/kg, mean AUC of blood glucose 30-120 min, dose equivalent to Glimepiride 4 mg/kg by M.wt, vs untreated normal control. How it is done:
The complete course of the experiment was conducted using male Wistar albino rats (200–250 g), reared and maintained in the animal house of the institution and provided free access to pelleted food and water ad libitum. The rats were maintained in a controlled environment (12 h light and dark cycle) for about a week for acclimatization. The protocol of the study was approved by the animal ethics committee of the Faculty of Pharmacy, Helwan University (10-01-2012). The study was conducted in accordance with the EC, directive 86/609/EEC for animal experiments.
Glimepiride (Amaryl) was used as a standard antidiabetic (4 mg/kg) in 1% gum acacia and administered orally. Equivalent doses of all derivatives were calculated according to their molecular weight [M·wt].
Male Wistar rats were fasted overnight. Blood was collected initially and then the compounds were given to corresponding groups consisting of six rats each by oral gavage. A sucrose load of (10 gm/kg) body weight was given to each rat after half an hour posttest treatment. Blood was collected in 30, 60, 90, and 120 min after sucrose load. The percentages (%) fallen in blood glucose level were calculated according to the AUC method.
Data were represented as mean area under curve (AUC) ± SD. Significant differences between groups was tested using GraphPad InStat (Graph software Inc., V 3.05, Ralph Stahlman, Purdue University). Appropriate graphs were plotted using Microsoft Excel 2007. P value less than 0.05 was considered statistically significant.

Data set [2] concerns male Wistar albino rats. Nature of the data set: Streptozotocin (STZ) model of diabetes, blood glucose AUC. The data set is classed as in vivo, rat. The settings on record: for Potency of antihyperglycemic derivatives compared to Amaryl: decrease in blood glucose relative to Amaryl = 100%, model not stated. The method, then: The complete course of the experiment was conducted using male Wistar albino rats (200-250 g), reared and maintained in the animal house of the institution and provided free access to pelleted food and water ad libitum. The rats were maintained in a controlled environment (12 h light and dark cycle) for about a week for acclimatization. The protocol of the study was approved by the animal ethics committee of the Faculty of Pharmacy, […] University (10-01-2012). The study was conducted in accordance with the EC, directive 86/609/EEC for animal experiments. […] Equivalent doses of all derivatives were calculated according to their molecular weight [M·wt]. Diabetes was induced in overnight fasted rats with a single intraperitoneal injection of streptozotocin (STZ) (Sigma-Aldrich, Co., St. Louis, USA. Catalog number: 1001062761) in a dose of 65 mg/kg. STZ was freshly dissolved in ice cold citrate buffer (0.01 M, pH 4.5) prior to injection. […] Group 2, diabetic + Glimepiride ([…]) (4 mg/kg), served as a reference antidiabetic drug. Groups (3-14) were given the various pyrrole derivatives ([…], b, f, and VIIIf, a, resp.). The treated groups administered the […] and different derivatives orally. For each group, blood glucose was estimated at zero, one, two, four, and six hours after oral administration of derivatives using glucometer (Gluco Dr Super Sensor, AllMedicus Co., Ltd., Anyang, Gyeonggi, Korea). Data were represented as mean area under curve (AUC) ± SD. Significant differences between groups was tested using GraphPad InStat (Graph software Inc., V 3.05, Ralph […], Purdue University). Appropriate graphs were plotted using Microsoft Excel 2007.

A short description of data set [3]: In vivo acute toxicity study, serum liver and kidney markers. On the set-up: species or system rat. The settings on record: for ALP / ALT / AST / Creatinine: rat serum; for levels of sera ALT, AST, ALP, and creatinine versus control untreated group: rats. The method, then: Alanine aminotransferase (ALT) and aspartate aminotransferase (AST) activities in serum were measured according to the Reitman-Frankel calorimetric transaminase procedure, whereas alkaline phosphatase (ALP) was assayed by the kinetic enzymatic method by measuring the rate of hydrolysis of p-nitrophenyl phosphate by ALP according to Henry; all were measured as indicators of hepatic injury. Serum creatinine levels were assayed as an indicator for renal injury in the samples by a calorimetric method, using commercial diagnostic kits (Diamond Diagnostics, Egypt).

Assay in data set [4]: as above
The settings on record: rat.

[5] abbreviates: oral, STZ 65 mg/kg i.p. diabetic rats, mean AUC of blood glucose 0-6 h, dose equivalent to Glimepiride 4 mg/kg by M.wt, vs diabetic control.

Where “and” joins values, the source holds several entries; their conditions need not be identical. Equal values may be shown once.

As to `CCC1=C(C)CN(C(=O)NCCc2ccc(S(=O)(=O)NC(=O)N[C@H]3CC[C@H](C)CC3)cc2)C1=O` [Amaryl, Glimepiride, reference compound], the inhibition in vivo at 4 mg/kg in data set [1] (Rattus norvegicus, 2 h, read-out: % reduction in blood glucose compared to control, SLM) turned out to be 27.7%; in data set [2] (Rattus norvegicus, oral, STZ 65 mg/kg i.p. diabetic rats, mean AUC of blood glucose 0-6 h, dose equivalent to Glimepiride 4 mg/kg by M.wt, vs diabetic control, read-out: % reduction in blood glucose compared to control, STZ), 30.4%. The “Potency of antihyperglycemic derivatives compared to Amaryl” value (shortened to “Potency … compared to Amaryl”) in data set [2] was 100%.
As usually defined, the melting point is the temperature of the solid-liquid transition. As for `Cc1nc(Cl)c2c(-c3ccccc3)c(-c3ccccc3)n(-c3c(C)n(C)n(-c4ccccc4)c3=O)c2n1` [IVg, 4-(4-Chloro-2-methyl-5,6-diphenyl-7H-pyrrolo[2,3-d]pyrimidin-7-yl)-1,5-dimethyl-2-phenyl-1H-pyrazol-3(2H)-one], the melting point is 158 to 160 °C. In addition, in data set [1], the “% reduction in blood glucose compared to control, SLM” value (“% reduction in blood glucose … SLM” below) is given as 13 ^ a %. In data set [2] (setting [5]), the “% reduction in blood glucose compared to control, STZ” value (“% reduction in blood glucose … STZ” below) is 11.2 ^ a %.
With `N#Cc1c(-c2ccccc2)c(-c2ccccc2)n(Cc2ccccc2)c1N` [Ia], the “% reduction in blood glucose … SLM” value in data set [1] was 17.4% and 17.4 ^ a %. In data set [3], this compound gave an ALP of 68.5 ± 12.3 U/L, an ALT of 17.9 ± 2.7 U/L, an AST of 69.4 ± 9.5 U/L and a Creatinine of 0.8 ± 0.16 mg/dL. Further, the “levels of sera ALT, AST, ALP, and creatinine versus control untreated group” value in data set [3] was “not significantly changed”. Besides, the “death or toxicity symptoms” value in data set [4] is given as “did not die or show any toxicity symptoms”. Moreover, in data set [2], the “Potency … compared to Amaryl” value is 109.4% and 109.43%. For the same compound, the “% reduction in blood glucose … STZ” value in data set [2] (setting [5]) is 33.3% and 33.3 ^ a %.
As to `Cc1c(-n2cc(-c3ccccc3)c(C#N)c2N)c(=O)n(-c2ccccc2)n1C` [Ie, 2-Amino-1-(1,5-dimethyl-3-oxo-2-phenyl-2,3-dihydro-1H -pyrazol-4-yl)-4-phenyl-1H -pyrrole-3-carbonitrile], the “% reduction in blood glucose … SLM” value in data set [1] was 16.7% and 16.7 ^ a %. For the same compound, in data set [3], the ALP was 73.9 ± 13.2 U/L, the ALT is listed as 20.5 ± 3.1 U/L, the AST is listed as 62.7 ± 9.7 U/L and the Creatinine worked out at 0.77 ± 0.14 mg/dL. Also, the “levels of sera ALT, AST, ALP, and creatinine versus control untreated group” value in data set [3] is “not significantly changed”. The “death or toxicity symptoms” value in data set [4] is “did not die or show any toxicity symptoms”. The “Potency … compared to Amaryl” value in data set [2] is 97% and 96.99%. Besides, the “% reduction in blood glucose … STZ” value in data set [2] (setting [5]) was 29.5% and 29.5 ^ a %.

Values taken from article PMC4099110, “Synthesis and Evaluation of Novel Pyrroles and Pyrrolopyrimidines as Anti-Hyperglycemic Agents” (BioMed Research International, 2014).
